Patent publication US9738634B2, “Heterocyclic amide compound and herbicide” (SYNGENTA PARTICIPATIONS AG, priority 2013, dated 2017)

What was measured:
Assay type in all cases: in vivo
[1] = tested on: Indian mallow; assay: Test Example 3: weedkilling efficacy through soil treatment; K: Indian mallow; conditions: soil treatment, treatment dosage 320 g/ha
In short: (§1)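 Crop and weed responses were judged three weeks after a uniform surface spray of the water-diluted emulsion at the given g/ha rate. Seeds sat beneath about 1.5 cm of sterilized diluvial soil, and boxes stood in a greenhouse at 25 to 30° C.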

[2] = tested on: oval-leafed pondweed; assay: Test Example 2: weedkilling efficacy, growth period weed treatment in the submerged state; C: oval-leafed pondweed; conditions: treatment dosage 320 g/ha
In short: (§2)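 First, alluvial soil in pots is flooded to 4 cm and mixed seed is sown. Next, plants grow in a greenhouse at 25 to 30° C until the 1-2 leaf stage. Then diluted emulsion is applied onto the water surface at the given g/ha rate, and injury is assessed after 3 weeks.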

[3] = tested on: directly sown rice; assay: Test Example 3: soil treatment, effect on crop; b: directly sown rice; conditions: soil treatment, treatment dosage 320 g/ha
In short: as §1

[4] = tested on: beet; assay: Test Example 3: soil treatment, effect on crop; f: beet; conditions: soil treatment, treatment dosage 320 g/ha
In short: as §1

[5] = tested on: common wind-grass; assay: Test Example 3: weedkilling efficacy through soil treatment; J: common wind-grass; conditions: soil treatment, treatment dosage 320 g/ha
In short: as §1

[6] = tested on: barnyard grass; assay: Test Example 1: weedkilling efficacy, preemergent weed treatment in the submerged state; A: barnyard grass; conditions: treatment dosage 320 g/ha
In short: (§3)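 Alluvial soil in Wagner pots flooded to 4 cm; barnyard grass, bulrush and oval-leafed pondweed seeds sown, then 2.5-leaf rice seedlings transplanted. Same day, emulsified compound diluted in water to set g/ha dosages and applied to water surface; greenhouse 25–30 °C, effect scored by criteria after 3 weeks.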

[7] = tested on: wheat; assay: Test Example 3: soil treatment, effect on crop; e: wheat; conditions: soil treatment, treatment dosage 320 g/ha
In short: as §1

[8] = tested on: barnyard grass; assay: Test Example 3: weedkilling efficacy through soil treatment; F: barnyard grass; conditions: soil treatment, treatment dosage 320 g/ha
In short: as §1

[9] = tested on: bulrush; assay: Test Example 1: weedkilling efficacy, preemergent weed treatment in the submerged state; B: bulrush; conditions: treatment dosage 320 g/ha
In short: as §3

[10] = tested on: black-grass; assay: Test Example 3: weedkilling efficacy through soil treatment; H: black-grass; conditions: soil treatment, treatment dosage 320 g/ha
In short: as §1

[11] = tested on: fig-leafed goosefoot; assay: Test Example 3: weedkilling efficacy through soil treatment; M: fig-leafed goosefoot; conditions: soil treatment, treatment dosage 320 g/ha
In short: as §1

[12] = tested on: corn; assay: Test Example 3: soil treatment, effect on crop; c: corn; conditions: soil treatment, treatment dosage 320 g/ha
In short: as §1

[13] = tested on: chickweed; assay: Test Example 3: weedkilling efficacy through soil treatment; N: chickweed; conditions: soil treatment, treatment dosage 320 g/ha
In short: as §1

[14] = tested on: wild oat; assay: Test Example 3: weedkilling efficacy through soil treatment; G: wild oat; conditions: soil treatment, treatment dosage 320 g/ha
In short: as §1

[15] = tested on: barnyard grass; assay: Test Example 2: weedkilling efficacy, growth period weed treatment in the submerged state; A: barnyard grass; conditions: treatment dosage 320 g/ha
In short: as §2

[16] = tested on: transplanted rice; assay: Test Example 1: preemergent weed treatment in the submerged state, effect on crop; a: transplanted rice; conditions: treatment dosage 320 g/ha
In short: as §3

[17] = tested on: bulrush; assay: Test Example 2: weedkilling efficacy, growth period weed treatment in the submerged state; B: bulrush; conditions: treatment dosage 320 g/ha
In short: as §2

[18] = tested on: Italian ryegrass; assay: Test Example 3: weedkilling efficacy through soil treatment; I: Italian ryegrass; conditions: soil treatment, treatment dosage 320 g/ha
In short: as §1

[19] = tested on: green foxtail; assay: Test Example 3: weedkilling efficacy through soil treatment; E: green foxtail; conditions: soil treatment, treatment dosage 320 g/ha
In short: as §1

[20] = tested on: crabgrass; assay: Test Example 3: weedkilling efficacy through soil treatment; D: crabgrass; conditions: soil treatment, treatment dosage 320 g/ha
In short: as §1

[21] = tested on: soybean; assay: Test Example 3: soil treatment, effect on crop; d: soybean; conditions: soil treatment, treatment dosage 320 g/ha
In short: as §1

[22] = tested on: catchweed; assay: Test Example 3: weedkilling efficacy through soil treatment; O: catchweed; conditions: soil treatment, treatment dosage 320 g/ha
In short: as §1

[23] = tested on: birds-eye speedwell; assay: Test Example 3: weedkilling efficacy through soil treatment; p: birds-eye speedwell; conditions: soil treatment, treatment dosage 320 g/ha
In short: as §1

[24] = tested on: oval-leafed pondweed; assay: Test Example 1: weedkilling efficacy, preemergent weed treatment in the submerged state; C: oval-leafed pondweed; conditions: treatment dosage 320 g/ha
In short: as §3

[25] = tested on: rapeseed; assay: Test Example 3: soil treatment, effect on crop; g: rapeseed; conditions: soil treatment, treatment dosage 320 g/ha
In short: as §1

[26] = tested on: redroot pigweed; assay: Test Example 3: weedkilling efficacy through soil treatment; L: redroot pigweed; conditions: soil treatment, treatment dosage 320 g/ha
In short: as §1

Row | Structure (SMILES) | K: Indian mallow, weedkilling efficacy grade [1] | C (oval-leafed pondweed) weedkilling efficacy grade [2] | b: directly sown rice, effect on crop grade [3] | f: beet, effect on crop grade [4] | J: common wind-grass, weedkilling efficacy grade [5] | A: barnyard grass, weed kill grade [6] | e: wheat, effect on crop grade [7] | F: barnyard grass, weedkilling efficacy grade [8] | B: bulrush, weed kill grade [9] | H: black-grass, weedkilling efficacy grade [10] | M: fig-leafed goosefoot, weedkilling efficacy grade [11] | c: corn, effect on crop grade [12] | N: chickweed, weedkilling efficacy grade [13] | G: wild oat, weedkilling efficacy grade [14] | A (barnyard grass) weedkilling efficacy grade [15] | a: transplanted rice, effect on crop grade [16] | B (bulrush) weedkilling efficacy grade [17] | I: Italian ryegrass, weedkilling efficacy grade [18] | E: green foxtail, weedkilling efficacy grade [19] | D: crabgrass, weedkilling efficacy grade [20] | further results
1 | Cc1nnc(NC(=O)C(C)(C)N2COCN(c3ccccc3)C2=O)s1 [A-1-13] | 0 (weed kill ratio 5% or less (practically no effect)) | 3 (weed kill ratio 40% or more, less than 70%) | 3 (weed kill ratio 40% or more, less than 70%) | 1 (weed kill ratio 5% or more, less than 20%) | 5 (weed kill ratio 90% or more, (practically complete withering)) | 5 (weed kill ratio 90% or more, (practically complete withering)) | 1 (weed kill ratio 5% or more, less than 20%) | 3 (weed kill ratio 40% or more, less than 70%) | 5 (weed kill ratio 90% or more, (practically complete withering)) | 5 (weed kill ratio 90% or more, (practically complete withering)) | 3 (weed kill ratio 40% or more, less than 70%) | 0 (weed kill ratio 5% or less (practically no effect)) | 3 (weed kill ratio 40% or more, less than 70%) | 3 (weed kill ratio 40% or more, less than 70%) | 3 (weed kill ratio 40% or more, less than 70%) | 3 (weed kill ratio 40% or more, less than 70%) | 5 (weed kill ratio 90% or more, (practically complete withering)) | 5 (weed kill ratio 90% or more, (practically complete withering)) | 3 (weed kill ratio 40% or more, less than 70%) | 3 (weed kill ratio 40% or more, less than 70%) | d: soybean, effect on crop grade [21]: 0 (weed kill ratio 5% or less (practically no effect)); O: catchweed, weedkilling efficacy grade [22]: 0 (weed kill ratio 5% or less (practically no effect)); P: birds-eye speedwell, weedkilling efficacy grade [23]: 4 (weed kill ratio 70% or more, less than 90%); C: oval-leafed pondweed, weed kill grade [24]: 5 (weed kill ratio 90% or more, (practically complete withering)); g: rapeseed, effect on crop grade [25]: 4 (weed kill ratio 70% or more, less than 90%); L: redroot pigweed, weedkilling efficacy grade [26]: 0 (weed kill ratio 5% or less (practically no effect))
2 | CSc1nnc(NC(=O)C(C)(C)N2COCN(c3ccccc3)C2=O)s1 [A-1-15] | 0 (weed kill ratio 5% or less (practically no effect)) | 5 (weed kill ratio 90% or more, (practically complete withering)) | 0 (weed kill ratio 5% or less (practically no effect)) | 0 (weed kill ratio 5% or less (practically no effect)) | 5 (weed kill ratio 90% or more, (practically complete withering)) | 4 (weed kill ratio 70% or more, less than 90%) | 0 (weed kill ratio 5% or less (practically no effect)) | 0 (weed kill ratio 5% or less (practically no effect)) | 5 (weed kill ratio 90% or more, (practically complete withering)) | 1 (weed kill ratio 5% or more, less than 20%) | 0 (weed kill ratio 5% or less (practically no effect)) | 0 (weed kill ratio 5% or less (practically no effect)) | 0 (weed kill ratio 5% or less (practically no effect)) | 0 (weed kill ratio 5% or less (practically no effect)) | 3 (weed kill ratio 40% or more, less than 70%) | 0 (weed kill ratio 5% or less (practically no effect)) | 5 (weed kill ratio 90% or more, (practically complete withering)) | 4 (weed kill ratio 70% or more, less than 90%) | 0 (weed kill ratio 5% or less (practically no effect)) | 0 (weed kill ratio 5% or less (practically no effect)) | d: soybean, effect on crop grade [21]: 0 (weed kill ratio 5% or less (practically no effect)); O: catchweed, weedkilling efficacy grade [22]: 0 (weed kill ratio 5% or less (practically no effect)); P: birds-eye speedwell, weedkilling efficacy grade [23]: 3 (weed kill ratio 40% or more, less than 70%); C: oval-leafed pondweed, weed kill grade [24]: 5 (weed kill ratio 90% or more, (practically complete withering)); g: rapeseed, effect on crop grade [25]: 1 (weed kill ratio 5% or more, less than 20%); L: redroot pigweed, weedkilling efficacy grade [26]: 0 (weed kill ratio 5% or less (practically no effect))
3 | Cc1nsc(NC(=O)C(C)(C)N2COCN(c3ccccc3)C2=O)n1 [A-1-18] | 0 (weed kill ratio 5% or less (practically no effect)) | 5 (weed kill ratio 90% or more, (practically complete withering)) | 5 (weed kill ratio 90% or more, (practically complete withering)) | 1 (weed kill ratio 5% or more, less than 20%) | 5 (weed kill ratio 90% or more, (practically complete withering)) | 5 (weed kill ratio 90% or more, (practically complete withering)) | 0 (weed kill ratio 5% or less (practically no effect)) | 4 (weed kill ratio 70% or more, less than 90%) | 5 (weed kill ratio 90% or more, (practically complete withering)) | 5 (weed kill ratio 90% or more, (practically complete withering)) | 4 (weed kill ratio 70% or more, less than 90%) | 0 (weed kill ratio 5% or less (practically no effect)) | 2 (weed kill ratio 20% or more, less than 40%) | 4 (weed kill ratio 70% or more, less than 90%) | 3 (weed kill ratio 40% or more, less than 70%) | 2 (weed kill ratio 20% or more, less than 40%) | 5 (weed kill ratio 90% or more, (practically complete withering)) | 5 (weed kill ratio 90% or more, (practically complete withering)) | 5 (weed kill ratio 90% or more, (practically complete withering)) | 5 (weed kill ratio 90% or more, (practically complete withering)) | d: soybean, effect on crop grade [21]: 4 (weed kill ratio 70% or more, less than 90%); O: catchweed, weedkilling efficacy grade [22]: 0 (weed kill ratio 5% or less (practically no effect)); P: birds-eye speedwell, weedkilling efficacy grade [23]: 4 (weed kill ratio 70% or more, less than 90%); C: oval-leafed pondweed, weed kill grade [24]: 5 (weed kill ratio 90% or more, (practically complete withering)); g: rapeseed, effect on crop grade [25]: 4 (weed kill ratio 70% or more, less than 90%); L: redroot pigweed, weedkilling efficacy grade [26]: 4 (weed kill ratio 70% or more, less than 90%)
